The text below walks through data of patent publication US6120997A, “Nucleic acid binders having an hydroxyamine motif” (The Scripps Research Institute, priority 1998, dated 2000).

Structures are written as SMILES.

The test system of data set [1] is bacterial protein synthesis. As to conditions: cited from earlier work.
In data set [2] the test system is Escherichia coli (ATCC 25922). Description: minimum inhibitory concentration, broth dilution technique. Type of data set: cell-based. The conditions noted are these: E. coli, liquid culture. The source says: We reasoned that this modification would provide the cleanest test for probing the ionic contribution, since hydrogen bond donor abilities, electronegativity and steric demand are similar for both functional groups. In order to learn how well the model system correlates with in vivo activity, we checked the new compounds for antibacterial activity against three bacterial strains using the disc method (Kirby-Bauer technique). The minimum inhibitory concentrations (MICs) of the compounds were then determined using the broth dilution technique. For antibiotic testing protocols, see: (a) Disk testing protocols: Phillips, I.; Williams, D., in Laboratory Methods in Antimicrobial Chemotherapy, Garrod, L. (ed.) Churchill Livingstone Press: Edinburgh, 1978, pp. 3-30. (b) MIC determination: Waterworth, P. M., in Laboratory Methods in Antimicrobial Chemotherapy, Garrod, L. (ed.) Churchill Livingstone Press: Edinburgh, 1978, pp. 31-40; Barry, A. L. The Antimicrobic Susceptibility Test: Principles and Practice, Lea and Febiger: Philadelphia (1976). (c) Standards: Lorian, V., Antibiotics in Laboratory Medicine (2nd. ed.), Williams and Wilkins: Baltimore, 1986.
FIG. 39A gives the zone diameters measured for the three bacterial strains. The zone diameters measured for the strains with known antibiotics are well within the accepted limits. […] It is worth noting that some testing protocols recommend overnight growth of the cultures, rather than the minimum time required to obtain good growth of the control. MIC values were tested for several of the control antibiotics using overnight growth, and the MIC values observed were 2-4× greater than those observed for 4-6 hour growth.
Minimal Inhibitory Concentration (MIC) testing. E. coli ATCC 25922 was grown in Mueller-Hinton broth (cation-adjusted, BBL Microbiology Systems) to an optical density of approx. 0.5 (absorbance read at 600 nm), then diluted to an OD600 of 0.1. Samples of antibiotic were prepared in Mueller-Hinton broth, typically a series of 2-fold dilutions from […]. […] The absorbance of each sample was read (1=600 nm), and MIC was considered to be the lowest antibiotic concentration at which the absorbance was less than 1% of the no-antibiotic control.
(In general: In broth dilution the organism is exposed to a series of concentrations in liquid medium.)

For data set [3] the following is noted: cited from earlier work.
The test system of data set [4] is Rev-RRE. As to conditions: cited from earlier work.

Regarding `NC[C@@H]1O[C@H](O[C@H]2[C@@H](O)[C@H](O[C@@H]3[C@@H](O)[C@H](N)C[C@H](N)[C@H]3O[C@H]3O[C@H](CN)[C@@H](O)[C@H](O)[C@H]3N)O[C@@H]2CO)[C@H](N)[C@@H](O)[C@@H]1O` [Neomycin B], in data set [1], the “effect on bacterial protein synthesis (in words)” value is on record as “induces miscoding during translation”. In data set [2], the “antibacterial activity / MIC compared with neomycin B (in words)” value is on record as “within accepted ranges for sensitive E. coli strains”. Moreover, the “pKa of N3” value in data set [3] is recorded as under 6.

As to `NC[C@@H]1O[C@H](O[C@H]2[C@@H](O)[C@H](O[C@@H]3[C@@H](O)[C@H](N)C[C@H](N)[C@H]3O[C@H]3O[C@H](CO)[C@@H](O)[C@H](O)[C@H]3N)O[C@@H]2CO)[C@H](N)[C@@H](O)[C@@H]1O` [Paromomycin], the “reported inhibitory effect on Rev-RRE binding (in words)” value in data set [4] is “virtually no inhibitory effect”. For the same compound, the “reported inhibition difference between neomycin B and paromomycin, Rev-RRE” value in data set [4] (gel-shift assays) is given as over 100 fold.
